Assay results taken from ChEMBL document CHEMBL3627688, “Structure-based hybridization, synthesis and biological evaluation of novel tetracyclic heterocyclic azathioxanthone analogues as potential antitumor agents” (Eur J Med Chem, 2015).

Tests used:
[1] = tested on: SW-620; experiment: Growth inhibition of human SW620 cells assessed as cell growth at 10 uM incubated for 48 hrs by sulforhodamine B assay; assay type: functional; conditions: SW-620, 48 h, read-out: Activity
[2] = Growth inhibition of human NCI-ADR-RES cells assessed as cell growth at 10 uM incubated for 48 hrs by sulforhodamine B assay; assay type: functional; conditions: read-out: Activity
[3] = Growth inhibition of human SF539 cells assessed as cell growth at 10 uM incubated for 48 hrs by sulforhodamine B assay; assay type: functional; conditions: SF-539, 48 h, read-out: Activity
[4] = Growth inhibition of human COLO205 cells assessed as cell growth at 10 uM incubated for 48 hrs by sulforhodamine B assay; assay type: functional; conditions: COLO 205, 48 h, read-out: Activity
[5] = tested on: OVCAR-5; experiment: Growth inhibition of human OVCAR5 cells assessed as cell growth at 10 uM incubated for 48 hrs by sulforhodamine B assay; assay type: functional; conditions: OVCAR-5, 48 h, read-out: Activity
[6] = tested on: HCT-15; experiment: Growth inhibition of human HCT15 cells assessed as cell growth at 10 uM incubated for 48 hrs by sulforhodamine B assay; assay type: functional; conditions: HCT-15, 48 h, read-out: Activity
[7] = tested on: 786-0; experiment: Growth inhibition of human 786-0 cells assessed as cell growth at 10 uM incubated for 48 hrs by sulforhodamine B assay; assay type: functional; conditions: 786-0, 48 h, read-out: Activity
[8] = Growth inhibition of human MOLT4 cells assessed as cell growth at 10 uM incubated for 48 hrs by sulforhodamine B assay; assay type: functional; conditions: MOLT-4, 48 h, read-out: Activity
[9] = tested on: SNB-75; experiment: Growth inhibition of human SNB75 cells assessed as cell growth at 10 uM incubated for 48 hrs by sulforhodamine B assay; assay type: functional; conditions: SNB-75, 48 h, read-out: Activity
[10] = tested on: SF-268; experiment: Growth inhibition of human SF268 cells assessed as cell growth at 10 uM incubated for 48 hrs by sulforhodamine B assay; assay type: functional; conditions: SF-268, 48 h, read-out: Activity
[11] = tested on: SN12C; experiment: Growth inhibition of human SN12C cells assessed as cell growth at 10 uM incubated for 48 hrs by sulforhodamine B assay; assay type: functional; conditions: read-out: Activity
[12] = tested on: PC-3; experiment: Antiproliferative activity against human PC3 cells assessed as cell viability incubated for 72 hrs by MTT assay; assay type: functional, cell-based; conditions: PC-3, 72 h
[13] = tested on: A549; experiment: Growth inhibition of human A549/ATCC cells assessed as cell growth at 10 uM incubated for 48 hrs by sulforhodamine B assay; assay type: functional; conditions: A549, 48 h, read-out: Activity
[14] = tested on: U-251; experiment: Growth inhibition of human U251 cells assessed as cell growth at 10 uM incubated for 48 hrs by sulforhodamine B assay; assay type: functional; conditions: U-251, 48 h, read-out: Activity
[15] = tested on: M14; experiment: Growth inhibition of human M14 cells assessed as cell growth at 10 uM incubated for 48 hrs by sulforhodamine B assay; assay type: functional; conditions: M14, 48 h, read-out: Activity
[16] = Growth inhibition of human SF295 cells assessed as cell growth at 10 uM incubated for 48 hrs by sulforhodamine B assay; assay type: functional; conditions: SF-295, 48 h, read-out: Activity
[17] = tested on: NCI-H226; experiment: Growth inhibition of human NCI-H226 cells assessed as cell growth at 10 uM incubated for 48 hrs by sulforhodamine B assay; assay type: functional; conditions: NCI-H226, 48 h, read-out: Activity
[18] = tested on: TK-10; experiment: Growth inhibition of human TK10 cells assessed as cell growth at 10 uM incubated for 48 hrs by sulforhodamine B assay; assay type: functional; conditions: TK-10, 48 h, read-out: Activity
[19] = tested on: KM12; experiment: Growth inhibition of human KM12 cells assessed as cell growth at 10 uM incubated for 48 hrs by sulforhodamine B assay; assay type: functional; conditions: KM12, 48 h, read-out: Activity
[20] = tested on: HCT-116; experiment: Growth inhibition of human HCT116 cells assessed as cell growth at 10 uM incubated for 48 hrs by sulforhodamine B assay; assay type: functional; conditions: HCT-116, 48 h, read-out: Activity
[21] = tested on: OVCAR-8; experiment: Growth inhibition of human OVCAR8 cells assessed as cell growth at 10 uM incubated for 48 hrs by sulforhodamine B assay; assay type: functional; conditions: OVCAR-8, 48 h, read-out: Activity
[22] = Growth inhibition of human NCI60 cells assessed as cell growth at 10 uM incubated for 48 hrs by sulforhodamine B assay; assay type: functional; conditions: NCI60, 48 h, read-out: Activity
[23] = Growth inhibition of human Hs 578T cells assessed as cell growth at 10 uM incubated for 48 hrs by sulforhodamine B assay; assay type: functional; conditions: read-out: Activity
[24] = Growth inhibition of human LOXIMVI cells assessed as cell growth at 10 uM incubated for 48 hrs by sulforhodamine B assay; assay type: functional; conditions: LOX IMVI, read-out: Activity
[25] = tested on: CAKI-1; experiment: Growth inhibition of human Caki1 cells assessed as cell growth at 10 uM incubated for 48 hrs by sulforhodamine B assay; assay type: functional; conditions: CAKI-1, 48 h, read-out: Activity
[26] = tested on: K562; experiment: Growth inhibition of human K562 cells assessed as cell growth at 10 uM incubated for 48 hrs by sulforhodamine B assay; assay type: functional; conditions: K562, 48 h, read-out: Activity
[27] = tested on: OVCAR-4; experiment: Growth inhibition of human OVCAR4 cells assessed as cell growth at 10 uM incubated for 48 hrs by sulforhodamine B assay; assay type: functional; conditions: OVCAR-4, 48 h, read-out: Activity
[28] = tested on: UACC-257; experiment: Growth inhibition of human UACC257 cells assessed as cell growth at 10 uM incubated for 48 hrs by sulforhodamine B assay; assay type: functional; conditions: UACC-257, 48 h, read-out: Activity
[29] = Growth inhibition of human HOP92 cells assessed as cell growth at 10 uM incubated for 48 hrs by sulforhodamine B assay; assay type: functional; conditions: HOP-92, 48 h, read-out: Activity
[30] = tested on: SR; experiment: Growth inhibition of human SR cells assessed as cell growth at 10 uM incubated for 48 hrs by sulforhodamine B assay; assay type: functional; conditions: read-out: Activity
[31] = Growth inhibition of human HCC2998 cells assessed as cell growth at 10 uM incubated for 48 hrs by sulforhodamine B assay; assay type: functional; conditions: HCC 2998, 48 h, read-out: Activity
[32] = tested on: UO-31; experiment: Growth inhibition of human UO31 cells assessed as cell growth at 10 uM incubated for 48 hrs by sulforhodamine B assay; assay type: functional; conditions: UO-31, 48 h, read-out: Activity
[33] = tested on: MDA-MB-435; experiment: Growth inhibition of human MDA-MB-435 cells assessed as cell growth at 10 uM incubated for 48 hrs by sulforhodamine B assay; assay type: functional; conditions: MDA-MB-435, 48 h, read-out: Activity
[34] = Growth inhibition of human RXF393 cells assessed as cell growth at 10 uM incubated for 48 hrs by sulforhodamine B assay; assay type: functional; conditions: RXF 393, 48 h, read-out: Activity
[35] = tested on: T47D; experiment: Growth inhibition of human T47D cells assessed as cell growth at 10 uM incubated for 48 hrs by sulforhodamine B assay; assay type: functional; conditions: read-out: Activity
[36] = tested on: NCI-H522; experiment: Growth inhibition of human NCI-H522 cells assessed as cell growth at 10 uM incubated for 48 hrs by sulforhodamine B assay; assay type: functional; conditions: NCI-H522, 48 h, read-out: Activity
[37] = tested on: HT-29; experiment: Growth inhibition of human HT-29 cells assessed as cell growth at 10 uM incubated for 48 hrs by sulforhodamine B assay; assay type: functional; conditions: HT-29, 48 h, read-out: Activity

| SMILES | growth at 10 µM [1] | growth at 10 µM [2] | growth at 10 µM [3] | growth at 10 µM [4] | growth at 10 µM [5] | growth at 10 µM [6] | growth at 10 µM [7] | growth at 10 µM [8] | growth at 10 µM [9] | growth at 10 µM [10] | growth at 10 µM [11] | IC50 [12] | growth at 10 µM [13] | growth at 10 µM [14] | growth at 10 µM [15] | growth at 10 µM [16] | growth at 10 µM [17] | growth at 10 µM [18] | growth at 10 µM [19] | growth at 10 µM [20] | other results |
| --- | --- | --- | --- | --- | --- | --- | --- | --- | --- | --- | --- | --- | --- | --- | --- | --- | --- | --- | --- | --- | --- |
| O=c1c2ccc(Cl)cc2sc2c(Cl)nc3ccccc3c12 | 99.1% | 103% | 89% | 112% | 100% | 102% | 105% | 98% | 77.9% | 110% | 95.9% | > 15 µM | 105% | 102% | 106% | 90.3% | 83.4% | 109% | 111% | 102% | growth at 10 µM [21]: 102%; growth at 10 µM [22]: 98.1%; growth at 10 µM [23]: 95.1%; growth at 10 µM [24]: 90.5%; growth at 10 µM [25]: 94.3%; growth at 10 µM [26]: 101%; growth at 10 µM [27]: 87.9%; growth at 10 µM [28]: 104%; growth at 10 µM [29]: 90.8%; growth at 10 µM [30]: 89%; growth at 10 µM [31]: 123%; growth at 10 µM [32]: 66.1%; growth at 10 µM [33]: 101%; growth at 10 µM [34]: 103%; growth at 10 µM [35]: 110%; growth at 10 µM [36]: 96.8%; growth at 10 µM [37]: 99.7% |
| O=C(O)c1c(Sc2ccc(Cl)cc2)c(O)nc2ccccc12 | 96.9% | 97.8% | 110% | 109% | 112% | 108% | 104% | 97.2% | 82.2% | 114% | 95.8% | > 15 µM | 107% | 99.6% | 107% | 99% | 106% | 118% | 113% | 104% | growth at 10 µM [21]: 115%; growth at 10 µM [22]: 102%; growth at 10 µM [23]: 88.3%; growth at 10 µM [24]: 90.5%; growth at 10 µM [25]: 76.3%; growth at 10 µM [26]: 112%; growth at 10 µM [27]: 98.4%; growth at 10 µM [28]: 122%; growth at 10 µM [29]: 73%; growth at 10 µM [30]: 106%; growth at 10 µM [31]: 101%; growth at 10 µM [32]: 68.9%; growth at 10 µM [33]: 102%; growth at 10 µM [34]: 114%; growth at 10 µM [35]: 99.6%; growth at 10 µM [36]: 81.6%; growth at 10 µM [37]: 101% |
